The results in this text go back to patent US20060166985A1, “Pyrrolydin-2-one derivatives as inhibitors of thrombin and factor xa” (priority 2002, published 2006).

The test deals with human Thrombin (Homo sapiens, UniProt P00734). Nature of the test: In vitro assay for inhibition of Thrombin (chromogenic or fluorogenic assay). As to conditions: Example 2 chromogenic assay, other Examples fluorogenic assay, read-out: thrombin inhibitory Ki. The test is classed as biochemical. How it is done:
Thrombin inhibitory activity is measured by the ability to inhibit human α-thrombin in a chromogenic assay using N-p-tosyl-gly-pro-lys p-nitroanilide as the chromogenic substrate, or in a fluorogenic assay using Rhodamine 110, bis-(CBZ-L-valyl-L-prolyl-L-arginine amide) as the fluorogenic substrate.
The compound was diluted from a 10 mM stock solution in dimethylsulfoxide at appropriate concentrations. Assay was performed at room temperature using buffer consisting of: 50 mM HEPES, 150 mM NaCl, 5 mM CaCl2, 0.1% PEG, pH 7.4. containing human Thrombin (final conc. of 1 nM). Compound and enzyme were preincubated for 15 min prior to addition of the substrate (final conc. of 100 μM). The reaction was stopped after 30 min with the addition of soybean trypsin inhibitor or H-D-PHE-PRO-ARG-Chloromethylketone. […] To obtain IC50 values the data were analysed using ActivityBase® and XLfit®.
Compounds were diluted from a 10 mM stock solution in dimethylsulfoxide at appropriate concentrations. Assay was performed at room temperature using buffer consisting of: 50 mM HEPES, 150 mM NaCl, 5 mM CaCl2, 0.1% PEG, pH 7.4. containing human Thrombin (final conc. Of 0.2 nM). Compound and enzyme were preincubated for 15 min prior to addition of the substrate (final conc. of 10 μM). The reaction was stopped after 3 hrs with the addition of H-D-PHE-PRO-ARG-Chloromethylketone. […] To obtain IC50 values the data were analysed using ActivityBase® and XLfit®.
In the case of `O=C(C(c1cccnc1)N1CC[C@H](NS(=O)(=O)CCc2ccc(Cl)s2)C1=O)N1CCOCC1` (mixture of isomers) [Example 92, 2-(5-chloro-2-thienyl)-N-{(3S)-1-[2-(4-morpholinyl)-2-oxo-1-(3-pyridinyl)ethyl]-2-oxo-3-pyrrolidinyl}ethanesulfonamide], the Ki is below 50 nM.
The value for `C[C@@H](C(=O)N1CCOCC1)N1CC[C@H](NS(=O)(=O)/C=C/c2ccc(Cl)cc2)C1=O` [(E)-2-(4-chlorophenyl)-N-{(3S)-1-[(1S)-1-methyl-2-morpholin-4-yl-2-oxoethyl]-2-oxopyrrolidin-3-yl}ethenesulfonamide, reference compound] was above 200 nM.
On to `C/C(=C\S(=O)(=O)N[C@H]1CCN([C@@H](C)C(=O)N2CCOCC2)C1=O)c1ccc(Cl)cc1` [Example 3, (1E)-2-(4-chlorophenyl)-N-{(3S)-1-[(1S)-1-methyl-2-morpholin-4-yl-2-oxoethyl]-2-oxopyrrolidin-3-yl}prop-1-ene-1-sulfonamide], for which the Ki is below 25 nM.
Next, `C[C@@H](C(=O)N1CCOCC1)N1CC[C@H](NS(=O)(=O)CCc2ccc(Cl)cc2)C1=O` [Example 4, 2-(4-chlorophenyl)-N-{(3S)-1-[(1S)-1-methyl-2-morpholin-4-yl-2-oxoethyl]-2-oxopyrrolidin-3-yl}ethanesulfonamide]: below 50 nM.
On to `CC[C@@H](C(=O)N1CCOCC1)N1CC[C@H](NS(=O)(=O)CCc2ccc(Cl)s2)C1=O` [Example 5, 2-(5-chlorothien-2-yl)-N-{(3S)-1-[(1S)-1-(morpholin-4-ylcarbonyl)propyl]-2-oxopyrrolidin-3-yl}ethanesulfonamide], for which the Ki is below 25 nM.
Next, `CC[C@@H](C(=O)N1CCOCC1)N1CC[C@H](NS(=O)(=O)CCc2ccc(Cl)cc2)C1=O` [Example 6, 2-(4-chlorophenyl)-N-{(3S)-1-[(1S)-1-(morpholin-4-ylcarbonyl)propyl]-2-oxopyrrolidin-3-yl}ethanesulfonamide]: below 100 nM; `CC[C@@H](C(=O)N1CCOCC1)N1CC[C@H](NS(=O)(=O)/C=C(\C)c2ccc(Cl)s2)C1=O` [Example 7, (1E)-2-(5-chlorothien-2-yl)-N-{(3S)-1-[(1S)-1-(morpholin-4-ylcarbonyl)propyl]-2-oxopyrrolidin-3-yl}prop-1-ene-1-sulfonamide]: below 10 nM; `CC(C)[C@@H](C(=O)N1CCOCC1)N1CC[C@H](NS(=O)(=O)CCc2ccc(Cl)s2)C1=O` [Example 8, 2-(5-chlorothien-2-yl)-N-{(3S)-1-[(1S)-2-methyl-1-(morpholin-4-ylcarbonyl)propyl]-2-oxopyrrolidin-3-yl}ethanesulfonamide]: below 10 nM.
The value for `C/C(=C\S(=O)(=O)N[C@H]1CCN([C@H](C(=O)N2CCOCC2)C(C)C)C1=O)c1ccc(Cl)s1` [Example 9, (1E)-2-(5-chlorothien-2-yl)-N-{(3S)-1-[(1S)-2-methyl-1-(morpholin-4-ylcarbonyl)propyl]-2-oxopyrrolidin-3-yl}prop-1-ene-1-sulfonamide] was below 10 nM; that for `CC[C@H](C)[C@@H](C(=O)N1CCOCC1)N1CC[C@H](NS(=O)(=O)CCc2ccc(Cl)s2)C1=O` [Example 10, 2-(5-chlorothien-2-yl)-N-{(3S)-1-[(1S,2S)-2-methyl-1-(morpholin-4-ylcarbonyl)butyl]-2-oxopyrrolidin-3-yl}ethanesulfonamide] was below 10 nM.
Next, `CC[C@H](C)[C@@H](C(=O)N1CCOCC1)N1CC[C@H](NS(=O)(=O)/C=C(\C)c2ccc(Cl)s2)C1=O` [Example 11, (1E)-2-(5-chlorothien-2-yl)-N-{(3S)-1-[(1S,2S)-2-methyl-1-(morpholin-4-ylcarbonyl)butyl]-2-oxopyrrolidin-3-yl}prop-1-ene-1-sulfonamide]: below 10 nM.
Turning to `CC[C@H](C)[C@@H](C(=O)N1CCOCC1)N1CC[C@H](NS(=O)(=O)CCc2ccc(Br)cc2)C1=O` [Example 12, 2-(4-bromophenyl)-N-{(3S)-1-[(1S,2S)-2-methyl-1-(morpholin 4-ylcarbonyl)butyl]-2-oxopyrrolidin-3-yl}ethanesulfonamide], the Ki was below 25 nM.
Next, `O=C([C@H](Cc1ccccc1)N1CC[C@H](NS(=O)(=O)CCc2ccc(Cl)s2)C1=O)N1CCOCC1` [Example 13, N-{(3S)-1-[(1S)-1-benzyl-2-morpholin-4-yl-2-oxoethyl]-2-oxopyrrolidin-3-yl}-2-(5-chlorothien-2-yl)ethanesulfonamide]: below 25 nM; `C/C(=C\S(=O)(=O)N[C@H]1CCN([C@@H](Cc2ccccc2)C(=O)N2CCOCC2)C1=O)c1ccc(Cl)s1` [Example 14, (1E)-N-{(3S)-1-[(1S)-1-benzyl-2-morpholin-4-yl-2-oxoethyl]-2-oxopyrrolidin-3-yl}-2-(5-chlorothien-2-yl)prop-1-ene-1-sulfonamide]: below 10 nM.
Turning to `COC[C@@H](C(=O)N1CCOCC1)N1CC[C@H](NS(=O)(=O)CCc2ccc(Cl)s2)C1=O` [Example 15, 2-(5-chlorothien-2-yl)-N-{(3S)-1-[(1S)-1-(methoxymethyl)-2-morpholin-4-yl-2-oxoethyl]-2-oxopyrrolidin-3-yl}ethanesulfonamide], the Ki was below 50 nM.
In the case of `COC[C@@H](C(=O)N1CCOCC1)N1CC[C@H](NS(=O)(=O)/C=C(\C)c2ccc(Cl)s2)C1=O` [Example 16, (1E)-2-(5-chlorothien-2-yl)-N-{(3S)-1-[(1S)-1-(methoxymethyl)-2-morpholin-4-yl-2-oxoethyl]-2-oxopyrrolidin-3-yl}prop-1-ene-1-sulfonamide], the Ki was below 10 nM.
Regarding `CO[C@H](C)[C@@H](C(=O)N1CCOCC1)N1CC[C@H](NS(=O)(=O)CCc2ccc(Cl)s2)C1=O` [Example 17, 2-(5-chlorothien-2-yl)-N-{(3S)-1-[(1S,2R)-2-methoxy-1-(morpholin-4-ylcarbonyl)propyl]-2-oxopyrrolidin-3-yl}ethanesulfonamide], the Ki is below 10 nM.
For `CO[C@H](C)[C@@H](C(=O)N1CCOCC1)N1CC[C@H](NS(=O)(=O)/C=C(\C)c2ccc(Cl)s2)C1=O` [Example 18, (1E)-2-(5-chlorothien-2-yl)-N-{(3S)-1-[(1S,2R)-2-methoxy-1-(morpholin-4-ylcarbonyl)propyl]-2-oxopyrrolidin-3-yl}prop-1-ene-1-sulfonamide], the Ki was below 10 nM.
For `C[C@@H](C(=O)N1CCOCC1)N1CC[C@H](N(C)S(=O)(=O)CCc2ccc(Cl)s2)C1=O` [Example 19, 2-(5-Chlorothien-2-yl)-N-methyl-N-{(3S)-1-[(1S)-1-methyl-2-morpholin-4-yl-2-oxoethyl]-2-oxopyrrolidin-3-yl}ethanesulfonamide], the Ki was below 50 nM.
Regarding `C[C@@H](C(=O)N1CCOCC1)N1CC[C@H](N(CC(N)=O)S(=O)(=O)CCc2ccc(Cl)s2)C1=O` [Example 20, N^2-{[2-(5-Chlorothien-2-yl)ethyl]sulfonyl}-N^2-{(3S)-1-[(1S)-1-methyl-2-morpholin-4-yl-2-oxoethyl]-2-oxopyrrolidin-3-yl}glycinamide], the Ki is below 25 nM.
For `O=C(C[C@@H](C(=O)N1CCOCC1)N1CC[C@H](NS(=O)(=O)CCc2ccc(Cl)s2)C1=O)OCc1ccccc1` [Example 21, Benzyl (3S)-3-[(3S)-3-({[2-(5-chlorothien-2-yl)ethyl]sulfonyl}amino)-2-oxopyrrolidin-1-yl]-4-morpholin-4-yl-4-oxobutanoate], the inhibition constant (Ki) is below 10 nM.
